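GI50 marks 50% less growth. TGI: concentration producing complete growth inhibition.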
Key:
Assay in all cases: NCI tumour cell line growth inhibition, 384-well format
[1] = tested on: HCT-15 colon
[2] = tested on: CCRF-CEM leukemia
[3] = tested on: MOLT-4 leukemia
[4] = tested on: UACC-62 melanoma
[5] = tested on: HT29 colon
[6] = tested on: TK-10 renal
[7] = tested on: 786-0 renal
[8] = tested on: RXF 393 renal
[9] = tested on: MALME-3M melanoma
[10] = tested on: SF-295 CNS
[11] = tested on: HL-60(TB) leukemia
[12] = tested on: MDA-MB-468 breast
[13] = tested on: SF-539 CNS
[14] = tested on: M14 melanoma
[15] = tested on: MCF7 breast
[16] = tested on: PC-3 prostate
[17] = tested on: RPMI-8226 leukemia
[18] = tested on: SNB-19 CNS
[19] = tested on: OVCAR-8 ovarian
[20] = tested on: UACC-257 melanoma
[21] = tested on: DU-145 prostate
[22] = tested on: SK-MEL-2 melanoma
[23] = tested on: NCI-H460 NSCLC
[24] = tested on: NCI-H226 lung
[25] = tested on: COLO 205 colon
[26] = tested on: A498 renal
[27] = tested on: SK-OV-3 ovarian
[28] = tested on: HCC-2998 colon
[29] = tested on: HOP-92 NSCLC
[30] = tested on: MDA-MB-231 breast
[31] = tested on: NCI-H322M lung
[32] = tested on: T-47D breast
[33] = tested on: SF-268 CNS
[34] = tested on: OVCAR-4 ovarian
[35] = tested on: SR leukemia
[36] = tested on: CAKI-1 renal
[37] = tested on: SW-620 colon
[38] = tested on: LOX IMVI melanoma
[39] = tested on: BT-549 breast
[40] = tested on: MDA-MB-435 melanoma
[41] = tested on: HCT-116 colon
[42] = tested on: OVCAR-3 ovarian
[43] = tested on: ACHN renal
[44] = tested on: SK-MEL-28 melanoma
[45] = tested on: NCI/ADR-RES ovarian
[46] = tested on: SK-MEL-5 melanoma
[47] = tested on: U251 glioblastoma
[48] = tested on: OVCAR-5 ovarian
[49] = tested on: IGROV1 ovarian
[50] = tested on: KM12 colon
[51] = tested on: NCI-H522 lung
[52] = tested on: SN12C renal
[53] = tested on: K-562 leukemia
[54] = tested on: A549 NSCLC
[55] = tested on: UO-31 renal

SMILES: C=CC(=O)Nc1cc(Nc2ncc(C(=O)OC(C)C)c(-c3cn(C)c4ccccc34)n2)c(OC)cc1N(C)CCN(C)C
- GI50 [1]: 1830 nM
- TGI [1]: 3230 nM
- GI50 [2]: 1810 nM
- TGI [2]: 3200 nM
- GI50 [3]: 1130 nM
- TGI [3]: 2330 nM
- GI50 [4]: 1630 nM
- TGI [4]: 2990 nM
- GI50 [5]: 1670 nM
- TGI [5]: 3050 nM
- GI50 [6]: 63.5 nM
- TGI [6]: 1710 nM
- GI50 [7]: 1300 nM
- TGI [7]: 2580 nM
- GI50 [8]: 1450 nM
- TGI [8]: 2760 nM
- GI50 [9]: 1690 nM
- TGI [9]: 3060 nM
- GI50 [10]: 7040 nM
- TGI [10]: 19500 nM
- GI50 [11]: 1650 nM
- TGI [11]: 3000 nM
- GI50 [12]: 26 nM
- TGI [12]: 1330 nM
- GI50 [13]: 1790 nM
- TGI [13]: 3180 nM
- GI50 [14]: 1760 nM
- TGI [14]: 3140 nM
- GI50 [15]: 1710 nM
- TGI [15]: 3110 nM
- GI50 [16]: 2100 nM
- TGI [16]: 4080 nM
- GI50 [17]: 1190 nM
- TGI [17]: 2420 nM
- GI50 [18]: 3990 nM
- TGI [18]: 15100 nM
- GI50 [19]: 1750 nM
- TGI [19]: 3310 nM
- GI50 [20]: 1500 nM
- TGI [20]: 2830 nM
- GI50 [21]: 1150 nM
- TGI [21]: 6140 nM
- GI50 [22]: 1570 nM
- TGI [22]: 2910 nM
- GI50 [23]: 1630 nM
- TGI [23]: 2980 nM
- GI50 [24]: 1980 nM
- TGI [24]: 4640 nM
- GI50 [25]: 1740 nM
- TGI [25]: 3130 nM
- GI50 [26]: 1250 nM
- TGI [26]: 2530 nM
- GI50 [27]: 50 nM
- TGI [27]: 2040 nM
- GI50 [28]: 1470 nM
- TGI [28]: 2800 nM
- GI50 [29]: 1450 nM
- TGI [29]: 2860 nM
- GI50 [30]: 1790 nM
- TGI [30]: 3240 nM
- GI50 [31]: 14.3 nM
- TGI [31]: 1760 nM
- GI50 [32]: 1280 nM
- TGI [32]: 2560 nM
- GI50 [33]: 1570 nM
- TGI [33]: 2960 nM
- GI50 [34]: 1800 nM
- TGI [34]: 4210 nM
- GI50 [35]: 1100 nM
- TGI [35]: 2290 nM
- GI50 [36]: 1040 nM
- TGI [36]: 2250 nM
- GI50 [37]: 1920 nM
- TGI [37]: 3340 nM
- GI50 [38]: 2220 nM
- TGI [38]: 3670 nM
- GI50 [39]: 1910 nM
- TGI [39]: 3480 nM
- GI50 [40]: 1830 nM
- TGI [40]: 3230 nM
- GI50 [41]: 1640 nM
- TGI [41]: 3000 nM
- GI50 [42]: 1200 nM
- TGI [42]: 2680 nM
- GI50 [43]: 64.7 nM
- TGI [43]: 1850 nM
- GI50 [44]: 1710 nM
- TGI [44]: 3080 nM
- GI50 [45]: 1550 nM
- TGI [45]: 4340 nM
- GI50 [46]: 1890 nM
- TGI [46]: 3290 nM
- GI50 [47]: 1750 nM
- TGI [47]: 3130 nM
- GI50 [48]: 4180 nM
- TGI [48]: > 100000 nM
- GI50 [49]: 1010 nM
- TGI [49]: 2310 nM
- GI50 [50]: 1760 nM
- TGI [50]: 3210 nM
- GI50 [51]: < 10 nM
- TGI [51]: 1400 nM
- GI50 [52]: 1630 nM
- TGI [52]: 3380 nM
- GI50 [53]: 1930 nM
- TGI [53]: 3340 nM
- GI50 [54]: 1450 nM
- TGI [54]: 4670 nM
- GI50 [55]: 1020 nM
- TGI [55]: 2190 nM
